Test results: article PMC7522982, “PKIS deep dive yields a chemical starting point for dark kinases and a cell active BRSK2 inhibitor” (Scientific Reports, 2020)

How the values were obtained:
RSK3 = test system: RSK3; set-up: method as in earlier work; settings: cited from earlier work
PRKAA2 = test system: PRKAA2; set-up: method as in earlier work; settings: cited from earlier work
STK17B/DRAK2 = target: T1, STK17B/DRAK2 (Homo sapiens, UniProt O94768); set-up: purchased Eurofins; method as in earlier work; settings: cited from earlier work
T1 sequence (O94768 1-372): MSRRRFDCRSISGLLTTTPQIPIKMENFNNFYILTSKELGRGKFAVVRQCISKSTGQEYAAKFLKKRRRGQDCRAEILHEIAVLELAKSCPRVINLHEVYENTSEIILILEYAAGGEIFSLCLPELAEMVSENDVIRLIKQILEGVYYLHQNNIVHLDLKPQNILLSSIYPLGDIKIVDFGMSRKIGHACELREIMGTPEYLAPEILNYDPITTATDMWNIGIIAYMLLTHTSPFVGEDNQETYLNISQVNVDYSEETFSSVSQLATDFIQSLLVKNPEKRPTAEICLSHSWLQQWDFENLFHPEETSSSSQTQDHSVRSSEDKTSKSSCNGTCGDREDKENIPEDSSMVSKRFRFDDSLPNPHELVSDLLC

MYLK/MLCK/smMLCK = MYLK/MLCK/smMLCK (Homo sapiens, UniProt Q15746); experiment: DiscoverX scanMAX competition binding assay; set-up: purchased Eurofins DiscoverX (scanMAX) / Eurofins enzymatic assays
Source text: (§1) Based on its narrow profile when tested in the combined Nanosyn and TSA panels, GW296115 was included in the recently released Kinase Chemogenomic Set (KCGS)[15]. All of the data presented in the Introduction section was collected prior to the inclusion of GW296115 in KCGS and everything that follows has been subsequently generated. Since its inclusion in PKIS and more recently KCGS, we have carried out a broader round of screening at DiscoverX. This profiling data has not been previously released and is reported here for the first time. GW296115 was profiled against 403 wild type human kinases at 1 μM using the DiscoverX scanMAX screening platform, which employs an active site-directed competition binding assay to quantitatively measure interactions between test compounds and kinases, [16]. GW296115 inhibited 25 kinases > 90% at 1 μM, resulting in a selectivity index (S10) of 0.062 at 1 μM (Table S2, Fig. 1C)[17].
(§2) The scanMAX assays were performed at Eurofins DiscoverX Corporation as previously described.

MAP3K9/MLK1 = MAP3K9/MLK1 (Homo sapiens, UniProt P80192); experiment: DiscoverX scanMAX competition binding assay; set-up: purchased Eurofins DiscoverX (scanMAX) / Eurofins enzymatic assays
Source text: as §1, §2

STK33 = STK33 (Homo sapiens, UniProt Q9BYT3); experiment: DiscoverX scanMAX competition binding assay; set-up: purchased Eurofins DiscoverX (scanMAX) / Eurofins enzymatic assays
Source text: as §1, §2

MAP4K4/HGK = MAP4K4/HGK (Homo sapiens, UniProt O95819); experiment: DiscoverX scanMAX competition binding assay; set-up: purchased Eurofins DiscoverX (scanMAX) / Eurofins enzymatic assays
Source text: as §1, §2

PLK4 = PLK4 (Homo sapiens, UniProt O00444); experiment: DiscoverX scanMAX competition binding assay; set-up: purchased Eurofins DiscoverX (scanMAX) / Eurofins enzymatic assays
Source text: as §1, §2

MAP3K11/MLK3 = MAP3K11/MLK3 (Homo sapiens, UniProt Q16584); experiment: DiscoverX scanMAX competition binding assay; set-up: purchased Eurofins DiscoverX (scanMAX) / Eurofins enzymatic assays
Source text: as §1, §2

AURKC = AURKC (Homo sapiens, UniProt Q9UQB9); experiment: DiscoverX scanMAX competition binding assay; set-up: purchased Eurofins DiscoverX (scanMAX) / Eurofins enzymatic assays
Source text: as §1, §2

LRRK2 = LRRK2 (Homo sapiens, UniProt Q5S007); experiment: DiscoverX scanMAX competition binding assay; set-up: purchased Eurofins DiscoverX (scanMAX) / Eurofins enzymatic assays
Source text: as §1, §2

PDGFRA = PDGFRA (Homo sapiens, UniProt P16234); experiment: DiscoverX scanMAX competition binding assay; set-up: purchased Eurofins DiscoverX (scanMAX) / Eurofins enzymatic assays
Source text: as §1, §2

PDGFRβ = test system: PDGFRβ; set-up: method as in PMID 26501955; settings: cited from earlier work
RPS6KA3/RSK2 = experiment: DiscoverX scanMAX competition binding assay; set-up: species or system human
Source text: as §1, §2

BRSK1 = target: T2, BRSK1 (Homo sapiens, UniProt Q8TDC3); set-up: purchased Eurofins DiscoverX Corporation; method as in earlier work; settings: cited from earlier work
T2 sequence (Q8TDC3 1-778): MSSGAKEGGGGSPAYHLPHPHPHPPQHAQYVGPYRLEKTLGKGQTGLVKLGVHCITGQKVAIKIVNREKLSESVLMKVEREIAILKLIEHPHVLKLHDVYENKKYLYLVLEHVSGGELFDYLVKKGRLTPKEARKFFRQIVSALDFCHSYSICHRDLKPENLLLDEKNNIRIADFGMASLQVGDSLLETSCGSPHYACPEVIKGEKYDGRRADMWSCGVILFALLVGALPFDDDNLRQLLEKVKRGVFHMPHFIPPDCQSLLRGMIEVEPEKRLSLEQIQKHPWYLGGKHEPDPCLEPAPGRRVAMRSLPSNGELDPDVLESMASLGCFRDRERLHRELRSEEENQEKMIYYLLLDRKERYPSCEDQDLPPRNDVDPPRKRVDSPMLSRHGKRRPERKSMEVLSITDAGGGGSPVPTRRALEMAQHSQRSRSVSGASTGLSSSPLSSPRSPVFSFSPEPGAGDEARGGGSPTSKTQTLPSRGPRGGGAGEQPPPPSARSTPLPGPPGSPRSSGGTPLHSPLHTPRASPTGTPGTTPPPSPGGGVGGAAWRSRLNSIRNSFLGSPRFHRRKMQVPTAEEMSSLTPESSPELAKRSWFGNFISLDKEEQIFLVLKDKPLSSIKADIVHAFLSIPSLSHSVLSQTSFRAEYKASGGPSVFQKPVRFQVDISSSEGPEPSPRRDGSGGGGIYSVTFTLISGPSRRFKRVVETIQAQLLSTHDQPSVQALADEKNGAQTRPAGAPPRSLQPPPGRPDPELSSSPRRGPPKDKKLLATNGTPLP

60 cancer cell lines = test system: 60 cancer cell lines; set-up: method as in PMID 26501955; settings: cited from earlier work
PDGFRα = test system: PDGFRα; set-up: method as in PMID 26501955; settings: cited from earlier work

Chain of MYLK/MLCK/smMLCK (Q15746 whole entry): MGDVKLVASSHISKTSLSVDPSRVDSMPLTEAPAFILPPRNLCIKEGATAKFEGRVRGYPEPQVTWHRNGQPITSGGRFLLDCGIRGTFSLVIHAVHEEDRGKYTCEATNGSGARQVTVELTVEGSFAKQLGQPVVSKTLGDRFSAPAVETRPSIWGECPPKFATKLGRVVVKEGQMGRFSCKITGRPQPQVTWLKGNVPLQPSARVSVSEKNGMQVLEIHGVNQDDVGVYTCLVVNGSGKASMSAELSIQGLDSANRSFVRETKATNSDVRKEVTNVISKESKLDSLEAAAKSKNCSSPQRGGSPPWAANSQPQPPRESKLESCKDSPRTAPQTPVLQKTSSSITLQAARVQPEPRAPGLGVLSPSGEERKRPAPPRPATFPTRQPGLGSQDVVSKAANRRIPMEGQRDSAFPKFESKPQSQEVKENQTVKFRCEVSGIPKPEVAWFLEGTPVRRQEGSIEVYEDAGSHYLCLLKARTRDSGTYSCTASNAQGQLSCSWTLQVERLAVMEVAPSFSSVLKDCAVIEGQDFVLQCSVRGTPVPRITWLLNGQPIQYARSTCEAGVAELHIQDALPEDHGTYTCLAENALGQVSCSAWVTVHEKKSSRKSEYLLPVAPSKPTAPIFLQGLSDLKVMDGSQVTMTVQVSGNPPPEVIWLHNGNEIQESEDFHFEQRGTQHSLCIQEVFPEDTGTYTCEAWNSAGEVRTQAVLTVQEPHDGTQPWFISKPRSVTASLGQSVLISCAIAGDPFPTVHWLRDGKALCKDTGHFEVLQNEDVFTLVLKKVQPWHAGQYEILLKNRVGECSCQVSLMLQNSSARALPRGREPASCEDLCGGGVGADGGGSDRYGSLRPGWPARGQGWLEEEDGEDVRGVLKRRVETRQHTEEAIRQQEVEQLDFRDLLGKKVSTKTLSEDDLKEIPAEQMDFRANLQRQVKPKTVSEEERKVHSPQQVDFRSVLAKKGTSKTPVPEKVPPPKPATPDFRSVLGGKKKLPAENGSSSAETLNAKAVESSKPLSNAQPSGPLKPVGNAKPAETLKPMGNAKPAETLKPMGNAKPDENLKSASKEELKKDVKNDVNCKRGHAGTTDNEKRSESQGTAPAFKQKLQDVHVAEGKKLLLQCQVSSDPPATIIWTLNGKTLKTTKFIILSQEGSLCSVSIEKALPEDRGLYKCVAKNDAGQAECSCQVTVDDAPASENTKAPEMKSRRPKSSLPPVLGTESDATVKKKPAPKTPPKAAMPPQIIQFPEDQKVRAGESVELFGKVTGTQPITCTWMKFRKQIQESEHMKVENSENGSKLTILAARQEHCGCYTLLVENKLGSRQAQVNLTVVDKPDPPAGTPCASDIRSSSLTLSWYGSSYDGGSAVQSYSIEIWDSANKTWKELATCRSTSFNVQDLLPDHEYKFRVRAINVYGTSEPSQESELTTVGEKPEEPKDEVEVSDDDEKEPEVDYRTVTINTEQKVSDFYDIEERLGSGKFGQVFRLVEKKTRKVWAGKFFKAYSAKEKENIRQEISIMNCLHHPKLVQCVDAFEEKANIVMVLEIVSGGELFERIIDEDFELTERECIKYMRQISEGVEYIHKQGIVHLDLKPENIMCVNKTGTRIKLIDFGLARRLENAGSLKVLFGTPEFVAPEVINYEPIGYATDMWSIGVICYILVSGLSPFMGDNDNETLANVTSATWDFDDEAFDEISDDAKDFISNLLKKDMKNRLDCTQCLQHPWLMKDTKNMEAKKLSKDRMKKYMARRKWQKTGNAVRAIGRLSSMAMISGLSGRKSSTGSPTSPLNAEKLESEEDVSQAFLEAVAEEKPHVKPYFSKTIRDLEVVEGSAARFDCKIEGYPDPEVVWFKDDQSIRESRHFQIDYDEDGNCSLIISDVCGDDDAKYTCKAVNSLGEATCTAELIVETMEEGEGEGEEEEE
Chain of MAP3K9/MLK1 (P80192 whole entry): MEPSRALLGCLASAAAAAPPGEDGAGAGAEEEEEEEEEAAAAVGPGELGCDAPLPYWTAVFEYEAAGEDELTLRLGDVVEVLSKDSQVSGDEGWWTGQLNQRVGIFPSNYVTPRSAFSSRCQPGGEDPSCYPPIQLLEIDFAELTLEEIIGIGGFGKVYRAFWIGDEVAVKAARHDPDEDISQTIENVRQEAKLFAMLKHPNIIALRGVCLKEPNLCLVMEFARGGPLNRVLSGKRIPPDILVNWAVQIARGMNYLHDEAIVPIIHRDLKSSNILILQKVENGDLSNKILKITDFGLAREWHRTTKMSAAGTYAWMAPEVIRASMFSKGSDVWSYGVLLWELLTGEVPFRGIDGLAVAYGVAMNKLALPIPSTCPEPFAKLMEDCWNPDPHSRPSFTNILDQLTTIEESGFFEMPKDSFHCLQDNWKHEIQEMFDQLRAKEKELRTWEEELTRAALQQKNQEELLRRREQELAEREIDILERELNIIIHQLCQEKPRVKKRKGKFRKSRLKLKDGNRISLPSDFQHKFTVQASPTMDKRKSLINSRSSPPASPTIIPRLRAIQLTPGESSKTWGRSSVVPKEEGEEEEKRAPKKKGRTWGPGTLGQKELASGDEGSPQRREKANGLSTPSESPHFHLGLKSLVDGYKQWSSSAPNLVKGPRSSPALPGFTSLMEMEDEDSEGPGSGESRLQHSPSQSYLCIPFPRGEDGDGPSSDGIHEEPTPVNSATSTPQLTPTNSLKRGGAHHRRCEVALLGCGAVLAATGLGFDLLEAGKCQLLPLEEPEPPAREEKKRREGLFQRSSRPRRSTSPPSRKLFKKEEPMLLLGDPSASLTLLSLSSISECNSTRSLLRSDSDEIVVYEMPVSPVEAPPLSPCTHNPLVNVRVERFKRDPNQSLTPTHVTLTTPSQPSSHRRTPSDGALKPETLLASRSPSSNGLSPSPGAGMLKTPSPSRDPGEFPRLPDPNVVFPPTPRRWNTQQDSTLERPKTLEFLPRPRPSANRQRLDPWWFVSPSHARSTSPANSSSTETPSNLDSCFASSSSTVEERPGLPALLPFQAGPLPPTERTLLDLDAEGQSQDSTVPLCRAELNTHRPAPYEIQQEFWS
Chain of MAP3K11/MLK3 (Q16584 whole entry): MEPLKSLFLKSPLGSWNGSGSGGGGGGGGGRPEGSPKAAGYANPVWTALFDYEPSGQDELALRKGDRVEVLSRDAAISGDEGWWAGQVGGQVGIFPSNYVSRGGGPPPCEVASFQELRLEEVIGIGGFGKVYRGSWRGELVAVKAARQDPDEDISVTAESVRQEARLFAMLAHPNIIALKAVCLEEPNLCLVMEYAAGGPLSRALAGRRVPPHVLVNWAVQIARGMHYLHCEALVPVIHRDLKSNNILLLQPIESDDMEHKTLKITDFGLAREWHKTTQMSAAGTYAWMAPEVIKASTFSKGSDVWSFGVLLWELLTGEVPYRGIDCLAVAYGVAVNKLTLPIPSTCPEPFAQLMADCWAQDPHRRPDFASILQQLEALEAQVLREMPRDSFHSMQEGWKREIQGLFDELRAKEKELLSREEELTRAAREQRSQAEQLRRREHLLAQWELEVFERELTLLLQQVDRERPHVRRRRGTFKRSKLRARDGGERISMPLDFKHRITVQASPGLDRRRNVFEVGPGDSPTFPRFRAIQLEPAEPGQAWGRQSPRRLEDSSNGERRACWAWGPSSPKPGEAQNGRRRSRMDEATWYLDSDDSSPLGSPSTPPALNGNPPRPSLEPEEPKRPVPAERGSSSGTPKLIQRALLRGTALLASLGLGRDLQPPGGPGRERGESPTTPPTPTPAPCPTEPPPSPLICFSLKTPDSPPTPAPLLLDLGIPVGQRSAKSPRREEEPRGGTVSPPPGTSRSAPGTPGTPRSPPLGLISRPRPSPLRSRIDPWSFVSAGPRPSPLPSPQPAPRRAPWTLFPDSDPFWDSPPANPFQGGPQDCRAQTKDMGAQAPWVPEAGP
Chain of AURKC (Q9UQB9 whole entry): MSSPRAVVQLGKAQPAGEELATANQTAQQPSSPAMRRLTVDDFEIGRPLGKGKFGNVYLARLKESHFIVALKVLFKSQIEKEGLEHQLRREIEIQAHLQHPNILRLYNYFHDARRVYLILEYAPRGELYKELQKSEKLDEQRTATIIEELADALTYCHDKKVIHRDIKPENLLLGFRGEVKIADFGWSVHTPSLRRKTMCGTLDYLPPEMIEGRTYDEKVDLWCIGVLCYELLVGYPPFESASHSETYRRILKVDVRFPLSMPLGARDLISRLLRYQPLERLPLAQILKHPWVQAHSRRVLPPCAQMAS
Chain of STK33 (Q9BYT3 whole entry): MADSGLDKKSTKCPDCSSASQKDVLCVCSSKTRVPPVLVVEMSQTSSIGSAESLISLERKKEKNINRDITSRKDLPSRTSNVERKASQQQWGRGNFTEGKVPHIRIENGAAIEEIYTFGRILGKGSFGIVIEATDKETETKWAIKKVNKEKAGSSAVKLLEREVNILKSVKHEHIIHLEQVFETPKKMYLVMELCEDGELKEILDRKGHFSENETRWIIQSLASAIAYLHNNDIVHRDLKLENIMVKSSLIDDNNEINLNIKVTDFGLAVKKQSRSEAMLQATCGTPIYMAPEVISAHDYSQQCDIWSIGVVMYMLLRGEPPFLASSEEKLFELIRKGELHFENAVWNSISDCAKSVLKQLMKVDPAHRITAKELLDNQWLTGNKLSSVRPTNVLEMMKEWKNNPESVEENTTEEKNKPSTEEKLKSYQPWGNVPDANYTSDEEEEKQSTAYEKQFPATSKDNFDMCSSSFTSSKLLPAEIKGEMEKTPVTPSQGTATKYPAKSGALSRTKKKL

## COc1ccc2[nH]c3c4[nH]c5ccc(OC)cc5c4c4c(c3c2c1)C(=O)NC4=O [GW296115]
RSK3
  Nanosyn % Inhibition at 1 μM: 92%
PRKAA2
  TSA ΔTm at 10 μM (°C): 10.6 °C
STK17B/DRAK2
  TSA ΔTm at 10 μM (°C): 18.3 °C
MYLK/MLCK/smMLCK
  inhibition at 1 µM: 95.4%
MAP3K9/MLK1
  inhibition at 1 µM: 95.1%
STK33
  inhibition at 1 µM: 92%
MAP4K4/HGK
  inhibition at 1 µM: 91.4%
PLK4
  inhibition at 1 µM: 99.5%
MAP3K11/MLK3
  inhibition at 1 µM: 92.4%
AURKC
  inhibition at 1 µM: 94.1%
LRRK2
  inhibition at 1 µM: 100%
PDGFRA
  inhibition at 1 µM: 91.4%
PDGFRβ
  Nanosyn % Inhibition at 1 μM: 85%
RPS6KA3/RSK2
  DiscoverX % Inhibition at 1 μM: 84%
BRSK1
  Nanosyn % Inhibition at 1 μM: 102%
60 cancer cell lines
  effect on cell growth, NCI60 panel: does not impact cell growth
PDGFRα
  Nanosyn % Inhibition at 1 μM: 84%
